Converted amounts (≈) assume the structure as drawn.
How the values were obtained:
[1] = Tested for aqueous solubility of the compound; format: physicochemical; settings: read-out: S
[2] = Partition coefficient (LogP) value was evaluated; format: physicochemical; settings: octanol/water
[3] = Tested for pKa value of the compound; format: physicochemical
[4] = target: T1, Renin (Rattus norvegicus) (UniProt P08424); test: Tested for % inhibition against renin at 10E-6 M concentration; format: functional
T1 sequence (whole entry): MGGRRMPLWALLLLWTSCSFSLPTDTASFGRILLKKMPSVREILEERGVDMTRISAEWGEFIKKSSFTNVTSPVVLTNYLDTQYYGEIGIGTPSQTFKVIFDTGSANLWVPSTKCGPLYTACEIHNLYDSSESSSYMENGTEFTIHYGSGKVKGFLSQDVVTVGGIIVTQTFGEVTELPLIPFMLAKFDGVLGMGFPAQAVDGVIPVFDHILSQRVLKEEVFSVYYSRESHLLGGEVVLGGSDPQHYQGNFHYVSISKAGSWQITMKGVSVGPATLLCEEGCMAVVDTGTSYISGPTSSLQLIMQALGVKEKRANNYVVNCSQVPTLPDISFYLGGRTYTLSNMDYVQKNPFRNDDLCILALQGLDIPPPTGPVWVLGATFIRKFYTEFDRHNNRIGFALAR

[5] = target: T1, Renin (Rattus norvegicus); test: Tested for percent inhibition against renin at 10 e-6 M concentration in rat; format: functional

Structure (SMILES)	solubility [1]	logP [2]	pKa [3]	inhibition [4]	inhibition [5]
CC(C)C[C@H](O)[C@H](O)[C@@H](N)CC1CCCCC1	5870 µg/mL (≈ 24100 µM)	2	9.3	0%	
CC(C)C[C@H](O)[C@H](O)[C@H](CC1CCCCC1)NC(=O)[C@H](Cc1csc(N)n1)NC(=O)[C@H](Cc1ccccc1)NS(=O)(=O)N1CCOCC1	10 µg/mL (≈ 14.1 µM)	3.1	6.3		
CC(C)C[C@H](O)[C@H](O)[C@H](CC1CCCCC1)NC(=O)OC(C)(C)C	< 20 µg/mL	4			0%

Source: ChEMBL document CHEMBL1127223, “Evaluation of the intestinal permeability and hepatic handling of peptidomimetic analogs” (Bioorg Med Chem Lett, 1993)
